BigSolDB 2.1

Conditions: in ethyl acetate

CCCCCOC(=O)Nc1nc(=O)n([C@@H]2O[C@H](C)[C@@H](O)[C@H]2O)cc1F
Conditions | solubility (mole fraction)
278.15 K | 0.003
283.15 K | 0.0039
288.15 K | 0.0052
293.15 K | 0.00678
298.15 K | 0.00919
303.15 K | 0.0112
308.15 K | 0.0149
313.15 K | 0.019
318.15 K | 0.0237
323.15 K | 0.0301
